Assay results taken from patent US20060052289A1, “Use of somatostatin analogs in sleep apnea” (priority 2003, published 2006).

Experiments:
[1] = Tolerability at dosages required for use; format: in vivo; conditions: free form or pharmaceutically acceptable salt form
[2] = test system: patients with predominantly obstructive sleep apnea; experiment: Clinical study in obstructive sleep apnea; format: in vivo, human; conditions: s.c. 100-600 μg, 2 months
Method: Obstructive Sleep Apnea: 10 patients with predominantly obstructive sleep apnea are treated with Compound A for 2 months. Sleep recordings, blood gases evaluation and endocrinological controls are performed before, on the first night and at 2 months of therapy. In this study, the compounds of the invention, e.g. Compound A, reduce the number of obstructive sleep apnea episodes when administered s.c. at a dose of 100-600 μg.

[3] = test system: patients with central sleep apnea; experiment: Clinical study in central sleep apnea; format: in vivo, human; conditions: s.c. 100-600 μg, 2 months
Method: Central Sleep Apnea: 10 patients with central sleep apnea associated with high ventilatory responses to carbon dioxide, are treated with a compound of the invention for 2 months. Sleep recordings, ventilatory control studies (blood gases) and endocrinological controls are performed before, on the first night, at 2 weeks and at 2 months of therapy. In this study, the compounds of the invention, e.g. Compound A, reduce the abnormal high ventilatory responses and the number of central sleep apnea episodes, when administered s.c. at a dose of 100-600 μg.

## cyclo[{4-(NH2—C2H4—NH—CO—O—)Pro}-Phg-DTrp-Lys-Tyr(4-Bzl)-Phe] [Compound A]
[1]
  tolerability: well tolerated
[2]
  number of obstructive sleep apnea episodes: reduce
[3]
  abnormal high ventilatory responses: reduce
  number of central sleep apnea episodes: reduce
